One test has as its system A549 cells. Briefly: Cell proliferation assay (CellTiter-Glo), K-Ras G12S cells. Format: cell-based. The conditions noted are these: for IC50: Homo sapiens. How it is done:
A549 (ATCC CRL-185) and LS123 (ATCC CRL-255) cell lines comprise a G12S mutation and can be used to assess Ras cellular signaling in vitro, e.g., in response to the compounds herein. A549 culture medium is prepared with RPMI-1640 and 10% heat-inactivated FBS. LS123 culture medium is prepared with RPMI-1640 and 10% heat-inactivated FBS. A CellTiter-Glo (CTG) luminescent based assay (Promega) is used to assess growth of the cells, as a measurement of the ability of the compounds herein to inhibit Ras signaling in the cells. The cells (e.g., 800 per well) are seeded in their respective culture medium in standard tissue culture-treated 384-well format plates (Falcon #08-772-116) or ultra-low attachment surface 384-well format plates (S-Bio # MS-9384WZ). The day after plating, cells are treated with a dilution series (e.g., a 10 point 3-fold dilution series) of the compounds herein (e.g., approximately 40 µl final volume per well). Cell viability can be monitored (e.g., approximately 6 days later) according to the manufacturer's recommended instructions, where the CellTiter-Glo reagent is added (e.g., approximately 10 µl), vigorously mixed, covered, and placed on a plate shaker (e.g., approximately for 20 min) to ensure sufficient cell lysis prior to assessment of luminescent signal. The IC50 values are determined using the four parameter fit. The resulting IC50 value is a measurement of the ability of the compounds herein to reduce cell growth of Ras-driven cells (e.g., tumor cell lines) in vitro and/or in vivo.
A general note: In ATP-based viability assays light output follows the ATP content of the culture.

The test system of a further test is GP2D cells. Nature of the test: Cell proliferation assay (CellTiter-Glo), K-Ras G12D cells. Format: cell-based. The note with it: read-out: Inhibition of GP2D Cells (IC50). The gist of the method:
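GP2D (K-Ras G12D) cells seeded in DMEM with 2 mM glutamine and 10% FBS, then dosed next day with a dilution series (e.g., 9-point 3-fold). Viability read by CellTiter-Glo luminescence after about 5 days. IC50 from four-parameter fit.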

For the next test, the target named is T1, K-Ras G12S (Homo sapiens, UniProt P01116, G12S).
T1 construct: made in house; host or cells: E. coli (e.g., BL21 (DE3))
Briefly: HTRF assay of the K-Ras / SOS1 interaction. Format: biochemical. The conditions noted are these: IC50 (against K-Ras G12D) to IC50 (against K-Ras G12S). The gist of the method: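 GST-K-Ras G12S with anti-GST-Eu donor and His-hSOS1 with anti-6His-XL665 acceptor in ~5 mM HEPES pH 7.4, ~150 mM NaCl, 1 mM DTT, 0.05% BSA, 0.0025% Igepal. Read after ~10 min or longer; IC50 from 665/620 nm ratio, duplicates at 10 µM down to 0.01 µM.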
(In general: Time-resolved FRET reads energy transfer from a long-lived donor to a nearby acceptor.)

The mark [1] stands for this setting: A549, A549 cells (K-Ras G12S), bin 500 nM to 5 µM, read-out: Inhibition of A549 Cells (IC50).
The mark [2] stands for this setting: A549, read-out: Inhibition of A549 Cells (IC50).
The mark [3] stands for this setting: A549, A549 cells (K-Ras G12S), bin ≤ 500 nM, read-out: Inhibition of A549 Cells (IC50).

Where two headings read alike, the source gives them in different places.

Results on ten molecules are retold here after patent EP4389751A1, “HETEROCYCLIC COMPOUNDS AND USES THEREOF” (Kumquat Biosciences Inc., priority 2021, dated 2024).

T1 sequence (P01116 1-188 isoform P01116-2 G12S): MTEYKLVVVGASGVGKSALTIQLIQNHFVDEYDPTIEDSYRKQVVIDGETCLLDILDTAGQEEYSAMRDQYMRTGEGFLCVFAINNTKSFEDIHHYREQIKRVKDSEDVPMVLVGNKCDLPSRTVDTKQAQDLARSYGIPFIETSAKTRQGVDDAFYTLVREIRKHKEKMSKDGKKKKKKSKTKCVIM

In the case of `Nc1nc2c(-c3c(Cl)cc4c(N5CC6CCC(C5)N6C(=O)n5cncn5)nc(OC[C@@]56CCCN5C[C@H](F)C6)nc4c3F)ccc(F)c2s1` [Compound A111, (3-(7-(2-amino-7-fluorobenzo[d]thiazol-4-yl)-6-chloro-8-fluoro-2-(((2R,7aS)-2-fluorotetrahydro-1H-pyrrolizin-7a(5H)-yl)methoxy)quinazolin-4-yl)-3,8-diazabicyclo[3.2.1]octan-8-yl)(1H-1,2,4-triazol-1-yl)methanone], the IC50 – broadly, the concentration that inhibits the measured activity by half – was 500 to 5000 nM in the test with A549 cells (setting [1]) and at most 1000 nM in the test on GP2D cells (GP2D cells (K-Ras G12D)). Also, the “Ratio of IC50 KRAS G12D vs. IC50 KRAS G12S” value at K-Ras G12S is “A (A: indicates that the ratio of IC50 against KrasG12D vs. IC50 against KrasG12S is 1-fold or greater)”.

`N#Cc1c(N)sc2c(F)ccc(-c3c(Cl)cc4c(N5CC6CCC(C5)N6C(=O)n5cc(C(F)(F)F)cn5)nc(OC[C@@]56CCCN5C[C@H](F)C6)nc4c3F)c12` [Compound A122, 2-amino-4-(6-chloro-8-fluoro-2-(((2R,7aS)-2-fluorotetrahydro-1H-pyrrolizin-7 a(5H)-yl)methoxy)-4-(8-(4-(trifluoromethyl)-1H-pyrazole-1-carbonyl)-3,8-diazabicyclo[3.2.1]octan-3-yl)quinazolin-7-yl)-7-fluorobenzo[b]thiophene-3-carbonitrile]: the IC50 with A549 cells (setting [1]) is 500 to 5000 nM; in the test on GP2D cells (GP2D cells (K-Ras G12D)), at most 1000 nM. For the same molecule, the “Ratio of IC50 KRAS G12D vs. IC50 KRAS G12S” value on K-Ras G12S was “A (A: indicates that the ratio of IC50 against KrasG12D vs. IC50 against KrasG12S is 1-fold or greater)”.

As for `Nc1nc2c(-c3c(Cl)cc4c(N5CC6CCC(C5)N6C(=O)n5ccnn5)nc(OC[C@@]56CCCN5C[C@H](F)C6)nc4c3F)ccc(F)c2s1` [Compound A153, (3-(7-(2-amino-7-fluorobenzo[d]thiazol-4-yl)-6-chloro-8-fluoro-2-(((2R,7aS)-2-fluorotetrahydro-1H-pyrrolizin-7a(5H)-yl)methoxy)quinazolin-4-yl)-3,8-diazabicyclo[3.2.1]octan-8-yl)(1H-1,2,3-triazol-1-yl)methanone], the results for the IC50 with A549 cells (setting [2]) and in the test with GP2D cells (GP2d) were 500 to 5000 nM and at most 1000 nM, respectively. The “Ratio of IC50 KRAS G12D vs. IC50 KRAS G12S” value at K-Ras G12S is reported as “A (A: indicates that the ratio of IC50 against KrasG12D vs. IC50 against KrasG12S is 1-fold or greater)”.

Regarding `C#Cc1c(F)ccc2cc(O)cc(-c3ncc4c(N5CCOCC6(CN(C(=O)n7cncn7)C6)C5)nc(OC[C@@]56CCCN5C[C@H](F)C6)nc4c3F)c12` [Compound A158, (9-(7-(8-ethynyl-7-fluoro-3-hydroxynaphthalen-1-yl)-8-fluoro-2-(((2R,7aS)-2-fluorotetrahydro-1H-pyrrolizin-7a(5H)-yl)methoxy)pyrido[4,3-d]pyrimidin-4-yl)-6-oxa-2,9-diazaspiro[3.6]decan-2-yl)(1H-1,2,4-triazol-1-yl)methanone], the IC50 is 500 to 5000 nM in the test with A549 cells (setting [1]) and 1000 to 10000 nM in the test with GP2D cells (GP2D cells (K-Ras G12D)). Further, the “Ratio of IC50 KRAS G12D vs. IC50 KRAS G12S” value at K-Ras G12S is given as “A (A: indicates that the ratio of IC50 against KrasG12D vs. IC50 against KrasG12S is 1-fold or greater)”.

As to `Cc1ncn(C(=O)N2CCCC(Oc3nc(OC[C@@]45CCCN4C[C@H](F)C5)nc4c(F)c(-c5ccc(F)c6sc(N)c(C#N)c56)c(Cl)cc34)CC2)n1` (stereo partly drawn) [Compound A174, 2-amino-4-(6-chloro-8-fluoro-2-(((2R,7aS)-2-fluorotetrahydro-1H-pyrrolizin-7 a(5H)-yl)methoxy)-4-((1-(3-methyl-1H-1 ,2,4-triazole-1-carbonyl)azepan-4-yl)oxy)quinazolin-7-yl)-7-fluorobenzo[b]thiophene-3-carbonitrile], the IC50 in the test on A549 cells (setting [1]) lay in the range of 500 to 5000 nM; in the test with GP2D cells (GP2D cells (K-Ras G12D)), 1000 to 10000 nM. Moreover, the “Ratio of IC50 KRAS G12D vs. IC50 KRAS G12S” value on K-Ras G12S is “A (A: indicates that the ratio of IC50 against KrasG12D vs. IC50 against KrasG12S is 1-fold or greater)”.

As to `N#Cc1c(N)sc2c(F)ccc(-c3c(Cl)cc4c(N5CC6CCN(C(=O)n7cncn7)C6C5)nc(OC[C@@]56CCCN5C[C@H](F)C6)nc4c3F)c12` (stereo partly drawn) [Compound A180, 4-(4-(1-(1H-1,2,4-triazole-1-carbonyl)hexahydropyrrolo[3,4-b]pyrrol-5(1H)-yl)-6-chloro-8-fluoro-2-(((2R,7aS)-2-fluorotetrahydro-1H-pyrrolizin-7a(5H)-yl)methoxy)quinazolm-7-yl)-2-amino-7-fluorobenzo[b]thiophene-3-carbonitrile], the IC50 is at most 500 nM with A549 cells (setting [3]) and 1000 to 10000 nM in the test with GP2D cells (GP2D cells (K-Ras G12D)). Also, at K-Ras G12S, the “Ratio of IC50 KRAS G12D vs. IC50 KRAS G12S” value is “A (A: indicates that the ratio of IC50 against KrasG12D vs. IC50 against KrasG12S is 1-fold or greater)”.

Take `N#Cc1c(N)sc2c(F)ccc(-c3c(Cl)cc4c(N5CCCC6C5CCN6C(=O)n5cncn5)nc(OC[C@@]56CCCN5C[C@H](F)C6)nc4c3F)c12` (stereo partly drawn) [Compound A184, 4-(4-(1-(1H-1,2,4-triazole-1-carbonyl)octahydro-4H-pyrrolo[3,2-b]pyridin-4-yl)-6-chloro-8-fluoro-2-(((2R,7aS)-2-fluorotetrahydro-1H-pyrrolizin-7a(5H)-yl)methoxy)quinazolin-7-yl)-2-amino-7-fluorobenzo[b]thiophene-3-carbonitrile]: the IC50 with A549 cells (setting [3]) is at most 500 nM; with GP2D cells (GP2D cells (K-Ras G12D)), at most 1000 nM. Also, the “ratio of IC50 against a G12D cell line to IC50 against a G12S cell line” value in the test with A549 cells (K-Ras G12D cell line such as GP2D relative to K-Ras G12S cell line such as A549, greater than 1, 2, 3, 4, 5, 10, 15 or even greater, 8640 min) is on record as “greater than 1”. Also, the “Ratio of IC50 KRAS G12D vs. IC50 KRAS G12S” value on K-Ras G12S was “A (A: indicates that the ratio of IC50 against KrasG12D vs. IC50 against KrasG12S is 1-fold or greater)”.

As for `Cc1ncn(C(=O)N2C3CCC2CN(c2nc(OC[C@@]45CCCN4C[C@H](F)C5)nc4c(F)c(-c5ccc(F)c6sc(N)c(C#N)c56)c(Cl)cc24)C3)n1` [Compound A186, 2-amino-4-(6-chloro-8-fluoro-2-(((2R,7aS)-2-fluorotetrahydro-1H-pyrrolizin-7a(5H)-yl)methoxy)-4-(8-(3-methyl-1H-1,2,4-triazole-1-carbonyl)-3,8-diazabicyclo[3.2.1]octan-3-yl)quinazolin-7-yl)-7-fluorobenzo[b]thiophene-3-carbonitrile], the half-inhibitory concentration (IC50) in the test with A549 cells (setting [2]) is 500 to 5000 nM; in the test on GP2D cells (GP2d), at most 1000 nM. Besides, the “Ratio of IC50 KRAS G12D vs. IC50 KRAS G12S” value on K-Ras G12S is reported as “A (A: indicates that the ratio of IC50 against KrasG12D vs. IC50 against KrasG12S is 1-fold or greater)”.

On to `Cc1nc(C)n(C(=O)N2CC3(CCCN(c4nc(OC[C@@]56CCCN5C[C@H](F)C6)nc5c(F)c(-c6ccc(F)c7sc(N)c(C#N)c67)c(Cl)cc45)C3)C2)n1` [Compound A190, 2-amino-4-(6-chloro-4-(2-(3,5-dimethyl-1H-1,2,4-triazole-1-carbonyl)-2,6-diazaspiro[3.5]nonan-6-yl)-8-fluoro-2-(((2R,7aS)-2-fluorotetrahydro-1H-pyrrolizin-7a(5H)-yl)methoxy)quinazolin-7-yl)-7-fluorobenzo[b]thiophene-3-carbonitrile], for which the IC50 lay within 500 to 5000 nM in the test on A549 cells (setting [1]) and 1000 to 10000 nM in the test on GP2D cells (GP2D cells (K-Ras G12D)). In addition, on K-Ras G12S, the “Ratio of IC50 KRAS G12D vs. IC50 KRAS G12S” value is “A (A: indicates that the ratio of IC50 against KrasG12D vs. IC50 against KrasG12S is 1-fold or greater)”.

For the molecule `Nc1nc2c(-c3c(Cl)cc4c(N5C[C@H]6CC[C@@H](C5)N6C(=O)Nc5ccncn5)nc(OC[C@@]56CCCN5C[C@H](F)C6)nc4c3F)ccc(F)c2s1` [Compound A223, (1R,5S)-3-(7-(2-amino-7-fluorobenzo[d]thiazol-4-yl)-6-chloro-8-fluoro-2-(((2R,7aS)-2-fluorotetrahydro-1H-pyrrolizin-7a(5H)-yl)methoxy)quinazolin-4-yl)-N-(pyrimidin-4-yl)-3,8-diazabicyclo[3.2. 1]octane-8-carboxamide], the IC50 in the test with A549 cells (setting [2]) was 500 to 5000 nM; in the test on GP2D cells (GP2d), at most 1000 nM. For the same molecule, on K-Ras G12S, the “Ratio of IC50 KRAS G12D vs. IC50 KRAS G12S” value was “A (A: indicates that the ratio of IC50 against KrasG12D vs. IC50 against KrasG12S is 1-fold or greater)”.
